Experiments:
[1] = system: androgen-responsive prostate tumor cell line LNCaP; conditions: cited from earlier work
MMP-9 = assay: Gelatin zymography of conditioned media, MMP-9; type: cell-based, human; conditions: for MMP-9 Count: perillyl alcohol 400 μM, 16 hr
Excerpt: (§1) Since the effects of isoprenoids with or without genistein on prostate cancer metastasis had not been explored prior to the present invention, the effects of genistein, perillyl alcohol, and γ-tocotrienol were studied on MMP-9 and MMP-2 activity. MMP activity as described in the background has been linked in part to the Ras/ERK pathway and may also be involved in a second unidentified pathway that is ERK-independent. Therefore, we employed gelatin zymography to study effects of isoprenoids on MMP-9 and MMP-2 activation and secretion.
(§2) Referring now to FIG. 8. which depicts a gelatin zymogram showing the effects of perillyl alcohol (PA), genistein (Gen), or γ-tocotrienol (g-Toco) on MMP activity. The results of FIG. 8 are quantified in Table 2. Cells were grown in 100 mm culture plates to approximately 80% confluency. Prior to experimental treatments, cells were washed extensively in serum-free medium and then incubated for […] in serum-free media with Mito plus® serum supplement (Becton-Dickinson) in the absence or presence of isoprenoids. Conditioned media were then collected from PC-3 and DU145 cells that were incubated in the absence or presence of genistein (20 μM), perillyl alcohol (400 μM), or γ-tocotrienol (20 μM) for 16 hr and clarified by centrifugation. MMP activity in conditioned media was analyzed by mixing aliquots with SDS sample loading buffer without β-mercaptoethanol (non-reducing). Samples were electrophoresed on a 10% polyacrylamide (29:1) separating gel containing 0.1% (w/v) gelatin. Gels were incubated in developing buffer at 37° C. overnight. Enzyme activity was observed after staining with Coomassie Blue as clear bands on a blue background of undigested gelatin. Band density was then normalized to cell number prior to- and post-treatment (See FIG. 8).

DU145 = assay: In vitro collagen gel contraction assay, DU145; type: cell-based, human; conditions: Perillyl Alcohol 400 μM, Genistein 20 μM, control 3.0
Protocol: (§3) An in vitro collagen gel contraction assay was used to evaluate the effects of isoprenoids on biomechanical tumor cell matrix remodeling from various prostate cancer cell lines. Collagen gel suspensions for each tumor cell line were prepared by mixing a 250 μl suspension of 3×10^6 cells/ml with 250 μl of undiluted rat tail collagen type I (BD Biosciences). The resultant collagen gel suspensions were dripped onto 35 mm petri dishes containing 3 ml RPMI 1640 in 10% FBS to prevent adhesion of collagen to the dish. Collagen gel suspensions were allowed to polymerize for one hr. Isoprenoid treatments were added 24 hr after exchanging culture medium and were removed 24-48 hr post treatment.

MMP-2 = assay: Gelatin zymography of conditioned media, MMP-2; type: cell-based, human; conditions: for MMP-2 Count: perillyl alcohol 400 μM, 16 hr
Excerpt: as §1, §2

PC-3 = assay: In vitro collagen gel contraction assay, PC-3; type: cell-based, human; conditions: for Diameter (cm) of collagen gel: PC-3, Perillyl Alcohol 400 μM, Genistein 20 μM, control 2.0
Protocol: as §3
Table 4 summaries the effects on collagen gel ball diameters for both PC3 and DU145 as a result from being exposed to various isoprenoids during the in vitro collagen gel contraction assay.

[2] = system: PC-3 prostate cancer cells; assay: Membrane Invasion Culture System (MICS); type: cell-based, human; conditions: for percent invaded: PC-3, 24 hr, MATRIGEL coated membrane, Perillyl Alcohol 400 μM, Genistein 20 μM, γ-tocotrienol 20 μM, control 12.5%; for invasive ability of PC-3 cells: PC-3, MICS
Excerpt: The Membrane Invasion Culture System (MICS) represents a direct measurement of intracellular reorganization and invasive capability of cancer cell lines. The MICS protocol was used to quantitate the effects of isoprenoid treatment on the invasive potential of PC-3 prostate cancer cells. Polycarbonate membranes (10 μm pores) were coated with a basement membrane matrix (MATRIGEL™, BD Biosciences) and placed inside MICS chambers. Both upper and lower chambers were filled with serum-free RPMI 1640 containing Mito plus™. Cells were seeded onto the upper wells at 1×10^5 cells/well. After 24 hr, cells that had invaded through the membrane were collected and counted. Invasion rates were calculated as the percent cells invading the matrix coated membrane compared to total number of cells seeded (Table 3).

4E-BP1 (Ser65) = assay: Western blot of phospho-4E-BP1 (Ser65) in prostate cancer cells; type: cell-based, human; conditions: both prostate cell lines (PC-3, DU145); perillyl alcohol 400 μM 16 hr, genistein 40 μM 4 hr, LY 294002 10 μM 4 hr
Protocol: (§4) We treated PC-3, DU145, and Caco-2 (colon adenocarcinoma) cells with lovastatin (LVT), perillyl alcohol (PA), the P13 kinase inhibitor, LY294002 (LY), or genistein (Gen). PC-3, DU145, and Caco-2 cells were plated in RPMI plus 10% FBS and cells allowed to grow for 24 hr. Medium was supplemented with lovastatin (1 μM for 16 hr), perillyl alcohol (400 μM for 16 hr), genistein (40 μM for 4 hr), or LY 294002 (10 μM for 4 hr). Cells were lysed in RIPA buffer and protein extracts quantitated. Aliquots (100 μg) were electrophoresed and transferred to PVDF membranes. […] The eIF4E (FIG. 6, top panel) and 4E-BP1 (FIG. 6, middle panel) were detected using antibodies specific for eIF4E and phospho-4E-BP1 (Ser65). Specific proteins were detected by ECL using a Kodak Image Station.
(§5) Referring now to FIG. 6 which depicts a Western blot analysis of eIF4E, 4E-BP1 (Ser65) and Rab3A from various cells. […] The same blot was reprobed with phospho-4E-BP1 (Ser65). […] Rab3A levels were also compared in the highly metastatic PC-3 cells, DU145 and in Caco-2, which is considered to have low metastatic potential.

[3] = system: human prostate cancer cells; conditions: human prostate cancer cells in culture; cited from earlier work
HMG-CoA reductase mRNA = HMG-CoA reductase mRNA levels in lovastatin-treated C100 cells; type: cell-based, Syrian Hamster; conditions: for reductase mRNA level lowered by / impact on HMG-CoA reductase mRNA levels: lovastatin treated C100 cells
Protocol: (§6) As discussed above, the end products of plant mevalonate metabolism, i.e., isoprenoids, suppress mammalian HMG-CoA reductase. To characterize the level at which plant-derived isoprenoids regulate reductase activity, lovastatin treated Syrian Hamster C100 cells were incubated with mevalonate or an isoprenoid (limonene, perillyl alcohol, or geraniol). These monoterpenes were selected because they are representative of isoprenoids found in a wide variety of plants, fruits and grains. C100 cells in which endogenous mevalonate biosynthesis is blocked with lovastatin have been a useful system to evaluate the effects of oxysterols and mevalonate-derived isoprenoids, either alone or in combination, on HMG-CoA reductase levels and rates of synthesis or degradation. […] The effects of the three isoprenoids on reductase degradation were also determined by measuring the half-life of HMG-CoA reductase.

HMG-CoA reductase [4] = assay: HMG-CoA reductase degradation (half-life) in lovastatin-treated SV28 cells; type: cell-based
Protocol: as §6

HMG-CoA reductase [5] = assay: Rate of HMG-CoA reductase synthesis (35S-labeled immunoprecipitable reductase) in lovastatin-treated C100 cells; type: cell-based, Syrian Hamster; conditions: for reductase synthesis lowered by: lovastatin treated C100 cells
Protocol: as §6

Rab3A = assay: Western blot of Rab3A; type: cell-based, human; conditions: DU145 cells; perillyl alcohol 400 μM 16 hr
Protocol: as §4, §5

[6] = DU145 conditioned media, genistein 20 μM (control 30.71), γ-tocotrienol 20 μM (control 23.5)
[7] = PC-3 conditioned media, genistein 20 μM (control 46.95), γ-tocotrienol 20 μM (control 18.14)
[8] = DU145 conditioned media, genistein 20 μM (control 15.05), γ-tocotrienol 20 μM (control 5.5)
[9] = PC-3 conditioned media, genistein 20 μM (control 11.85), γ-tocotrienol 20 μM (control 18.14)

| SMILES | MMP-9 activity (MMP-9; DU145 cells) | MMP-9 Count (MMP-9; [6]) | MMP-9 activity (MMP-9; PC-3 cells) | MMP-9 Count (MMP-9; [7]) | MMP-2 Count (MMP-2; [8]) | MMP-2 Count (MMP-2; [9]) | percent invaded [2] | invasive ability of PC-3 cells [2] | reductase synthesis lowered by (HMG-CoA reductase [5]) | further results |
| --- | --- | --- | --- | --- | --- | --- | --- | --- | --- | --- |
| O=c1c(-c2ccc(O)cc2)coc2cc(O)cc(O)c12 [Genistein, genistein] | exhibited no similar effect | 47.64 | nearly ninety percent | 5.25 | 23.54 | 4.25 | 0% | inhibited the invasive ability of PC-3 cells, with genistein exhibiting the greatest effect |  | concentration shown to induce apoptosis [1]: above 20 μM; Diameter (cm) of collagen gel (DU145): 3.2 cm; Diameter (cm) of collagen gel (PC-3): 3.5 cm; 4E-BP1 Ser65 phosphorylation (Western blot) (4E-BP1 (Ser65)): did not appear to affect Ser65 phosphorylation of the upper band but reduced phosphorylation of the lower of the two bands; concentration inhibiting growth [3]: above 50 μmol |
| CC(C)=CCC/C(C)=C/CO [Geraniol, geraniol] |  |  |  |  |  |  |  |  | 98% | reductase mRNA level lowered by (HMG-CoA reductase mRNA): 64%; effect on half-life of reductase (HMG-CoA reductase [4]): Neither limonene nor geraniol affected the half-life |
| CC[C@H](C)C(=O)O[C@H]1C[C@@H](C)C=C2C=C[C@H](C)[C@H](CC[C@@H]3C[C@@H](O)CC(=O)O3)[C@H]21 [Lovastatin, lovastatin, reference compound] |  |  |  |  |  |  |  |  |  | mRNA Levels (reductase) (HMG-CoA reductase mRNA; percentage of lovastatin-treated cells set at 100%, corrected to RP S17 mRNA, mevalonate 10 mM, limonene 5 mM, perillyl alcohol 0.7 mM, geraniol 0.4 mM): 100 ± 5%; Rate of Synthesis (reductase) (HMG-CoA reductase [5]; percentage (mean ± S.D.) of lovastatin-treated C100 cells set at 100%, 1 hr 35S labeling, mevalonate 10 mM, limonene 5 mM, perillyl alcohol 0.7 mM, geraniol 0.4 mM): 100 ± 15% |
| CC(O)(CCO)CC(=O)O (stereo not shown) [Mevalonate, mevalonate, reference compound] |  |  |  |  |  |  |  |  | 65% | reductase mRNA level lowered by (HMG-CoA reductase mRNA): 65%; HMG-CoA reductase half-life decreased by (HMG-CoA reductase [4]): approximately 60% |
| C=C(C)[C@@H]1CC=C(CO)CC1 [Perillyl Alcohol, perillyl alcohol] | nearly extinguished all MMP-9 activity | 0.09 | exhibited no similar effect | 72.65 | 10.63 | 6.73 | 5% | inhibited the invasive ability | 89% | impact on HMG-CoA reductase mRNA levels (HMG-CoA reductase mRNA): neither limonene nor perillyl alcohol had a significant impact; Diameter (cm) of collagen gel (DU145): 3.75 cm; extracellular matrix remodeling of gel ball (PC-3; PC3 cells, FIG. 9): retards matrix remodeling; Diameter (cm) of collagen gel (PC-3): 3.2 cm; 4E-BP1 Ser65 phosphorylation (Western blot) (4E-BP1 (Ser65)): reduced Ser65 phosphorylation; Rab3A protein level (Western blot) (Rab3A): further reduce the levels of Rab3A protein |
| C=C(C)[C@H]1CC=C(C)CC1 [limonene] |  |  |  |  |  |  |  |  | 70% | impact on HMG-CoA reductase mRNA levels (HMG-CoA reductase mRNA): neither limonene nor perillyl alcohol had a significant impact; effect on half-life of reductase (HMG-CoA reductase [4]): Neither limonene nor geraniol affected the half-life |
| CC(C)=CCC/C(C)=C/CC/C(C)=C/CC[C@]1(C)CCc2cc(O)c(C)c(C)c2O1 [γ-tocotrienol] | modest monotonic decreases | 16.5 | modest monotonic decreases | 27.4 | −2.2 | 15.3 | 7% | inhibited the invasive ability |  | MMP-2 activity (MMP-2; DU145 cells): modest monotonic decreases; MMP-2 activity (MMP-2; PC-3 cells): modest monotonic decreases |
